Laboratory results taken from EP1289507B1, “USE OF AN ALDOSTERONE ANTAGONIST FOR THE TREATMENT OR PROPHYLAXIS OF ALDOSTERONE-MEDIATED PATHOGENIC EFFECTS” (priority 2000, dated 2001).
Where “and” joins values, the source holds several entries; their conditions need not be identical. Identical values can stand only once. Entries after “also recorded” stand apart in the source; their conditions may differ. Like-named read-outs stand apart in the source and are kept apart here.

How the values were obtained:
[1] = tested on: stroke-prone spontaneously hypertensive rats; conditions: cited from earlier work
[2] = tested on: aldosterone/salt uninephrectomized rats; experiment: Myocardial injury in aldosterone/salt uninephrectomized rats; assay type: in vivo, Sprague Dawley rats; conditions: eplerenone 100 mg/k/d in chow; aldosterone 0.75ug/hr, 1% NaCl
Protocol: Sprague Dawley rats (250 g) were uninephrectomized and provided with 1% NaCl-solution as the only source of water. The rats were then implanted with Alzet mini pump that subcutaneously delivered either aldosterone (0.75ug/hr) or vehicle. […] Blood pressure was measured by radio telemetry units implanted in abdominal aorta. Rats were sacrificed for examination of the hearts.

[3] = Single dose tolerability and pharmacokinetic trials, Japan and Ex-Japan; assay type: in vivo, Japanese (Japan) and European (Ex-Japan) subjects; conditions: for CL/F: single dose, least squares mean
Protocol: A total of 76 European subjects and 38 Japanese subjects participated in the single and multiple dose tolerability and food effect trials. Three of the studies were Ex-Japan studies and included doses ranging from 10 mg to 1000 mg. The other two studies were conducted in Japan and included doses ranging from 50 mg to 600 mg.
The Ex-Japan trials included (i) a single dose tolerability trial, and (ii) a multiple dose tolerability trial, and (iii) a food effect study.
Both single dose and multiple dose tolerability trials were conducted in Japan utilizing healthy male Japanese subjects. […] Six subjects who received the 100 mg dose also participated in the food effect treatment arm of the single dose tolerability trial.
Combining single dose fasting pharmacokinetic data from all five studies, an analysis of variance with factors for country (Japan, Ex-Japan), study nested within country, and dose were performed on the dose-normalized Cmax and AUC values to assess the effect of country (population). Dose normalization was done to the lowest dose (10 mg for single dose, 100 mg for multiple dose). In the absence of intravenous data, the distribution volume (V/F) and clearance (CL/F) parameters are represented as the apparent values and are normalized to 70 kg of body weight. There were no statistically significant differences between the Japan and Ex-Japan trials in any of the pharmacokinetic parameters analyzed.
No statistically significant differences were noted between the Japan and ex-Japan population for any of the derived parameters evaluated.
Each panel consisted of six subjects who were given eplerenone and two subjects who were given placebo.

saline-drinking SHRSP = experiment: Stroke and cerebrovascular damage in saline-drinking SHRSP; assay type: in vivo, rats; conditions: 100 mg/kg/day
Excerpt: Fifteen male, 9 weeks of age, saline-drinking SHRSP were included in the experiment.

[4] = tested on: saline-loaded adrenalectomized rats treated with aldosterone; experiment: Subcutaneous vs. oral administration: urinary Na/K in saline-loaded adrenalectomized rats treated with aldosterone; assay type: in vivo; conditions: antagonizing aldosterone-mediated renal effects
Protocol: Urinary sodium, potassium and water excretion were measured. The results are expressed as the ratio of excreted urinary sodium to potassium (Na/K) ± SEM.

[5] = tested on: Stroke Prone Spontaneously Hypertensive Rat (SHR-SP); experiment: Blood pressure in stroke prone spontaneously hypertensive rat (SHR-SP), tail cuff plethysmography; assay type: in vivo
Protocol: Methods: SHR-SP were bred in the animal facilities of New York Medical College and maintained on normal rat chow and non-saline drinking water (i.e., tap water). […] Indirect measurements of systolic blood pressure were assessed by tail cuff plethysmography.

[6] = 96 hours postdose; other tissues below the limit of detection; 20 mg/kg
[7] = tested on: L-NAME/ANG-II-induced renal injury in rats; conditions: cited from earlier work
[8] = Form H content of dried solids by X-ray powder diffraction (XPRD); assay type: physicochemical
[9] = as above; assay type: physicochemical; conditions: for Estimated Weight Percent of Form H / Form H Peak Area 12° Two Theta Peak: dried solids from methyl ethyl ketone crystallization
Protocol: The weight percent of the diepoxide or 11,12-epoxide in each sample is given in Tables C-6A and C-6B, respectively. A micro-flea magnetic stirrer was added to each scintillation vial along with 1 mL of methyl ethyl ketone. The vials were loosely capped and the solid dissolved by heating to reflux on a hot plate with magnetic stirring. Once the solids were dissolved, the solutions were allowed to cool to room temperature on the hot plate. Magnetic stirring was maintained during the cooling period. After the solutions reached room temperature, the solids were collected by vacuum filtration and immediately analyzed by X-ray powder diffraction (XPRD). The solids were then placed in a 100°C oven and dried for one hour at ambient pressure. The dried solids were analyzed by XPRD for Form H content by monitoring the area of the Form H diffraction peak at about 12.1 degrees two theta. All XPRD diffraction patterns were recorded using an Inel Multipurpose Diffractometer. Table C-6A
The peak intensities have been normalized for ease of comparison. No Form H was detected for the dried samples corresponding to the methyl ethyl ketone crystallizations performed at doping levels of 0 and 1%. Form H was detected in the dried samples corresponding to the methyl ethyl ketone crystallizations performed at doping levels of 3 and 5%. The area for the Form H diffraction peak at about 12.1 degrees two theta and the estimated Form H content for each sample are given in Table C-6C below. Table C-6C
The peak intensities have been normalized for ease of comparison. No Form H was detected for the dried samples corresponding to the methyl ethyl ketone crystallizations performed at doping levels of 0, 1% and 5%. Form H was detected in the dried samples corresponding to the methyl ethyl ketone crystallization performed at a doping level of 10%. The area for the Form H diffraction peak at 12.1 degrees two theta and estimated Form H content for each sample are given in Table C-6D. Table C-6D
Table C-7B reports the weight fraction of Form H measured in materials dried using either a fluid bed (LAB-LINE/P.R.L. Hi-Speed Fluid Bed Dryer, Lab-Line Instruments, Inc.) or a vacuum oven (Baxter Scientific Products Vacuum Drying Oven, Model DP-32). […] Table C-7B

[10] = 0% 11,12-epoxide in starting eplerenone mixture
[11] = 0% diepoxide in starting eplerenone mixture
[12] = 1% 11,12-epoxide in starting eplerenone mixture
[13] = 1% diepoxide in starting eplerenone mixture
[14] = 3% diepoxide in starting eplerenone mixture
[15] = 5% 11,12-epoxide in starting eplerenone mixture
[16] = 5% diepoxide in starting eplerenone mixture
[17] = 10% 11,12-epoxide in starting eplerenone mixture

COC(=O)[C@@H]1CC2=CC(=O)CC[C@]2(C)[C@@]23O[C@@H]2C[C@@]2(C)[C@@H](CC[C@@]24CCC(=O)O4)[C@H]13 [Eplerenone, Pregn-4-ene-7,21-dicarboxylic acid, 9,11-epoxy-17-hydroxy-3-oxo-, γ-lactone, methyl ester, (7α, 11α, 17β)-]
proteinuria, renal lesions and hypertension [1]: prevented proteinuria and renal lesions but not severe hypertension | histopathologic myocardial damage [2]: prevents the histopathologic damage; also recorded: prevents the aldosterone plus high sodium myocardial damage | adverse events ([3]; healthy Japanese male subjects, single doses 50-600 mg): no adverse events were reported | CL/F ([3]; human, blood, po, Ex-Japan, read-out: CL/F (converted)): 228 mL/min | CL/F ([3]; human, blood, po, Japan, read-out: CL/F (converted)): 230 mL/min | CL/F ([3]; Ex-Japan): 14.44 L/hr/70 kg | CL/F ([3]; Japan): 13.52 L/hr/70 kg | proteinuria (saline-drinking SHRSP): 38 ± 18 mg/day | severe hypertension (SBP) (saline-drinking SHRSP; Figure A-12): 237 ± 3 mmHg | signs of stroke (saline-drinking SHRSP; n=7): no signs of stroke up to 18.5 weeks of age | efficacy of subcutaneous injection vs oral administration [4]: better efficacy than oral administration | systolic blood pressure ([5]; Week 13 (initiation), 100 mg/kg/day p.o. BID): 201.4 ± 1.6 mmHg | systolic blood pressure ([5]; Week 14, 100 mg/kg/day p.o. BID): 202.8 ± 1.8 mmHg | systolic blood pressure ([5]; Week 15, 100 mg/kg/day p.o. BID): 208.0 ± 4.2 mmHg | systolic blood pressure ([5]; Week 16, 100 mg/kg/day p.o. BID): 203.1 ± 6.2 mmHg | concentrations of radioactivity in cecum, kidneys, large intestine and liver [6]: less than 0.024 µg equivalents/g | L-NAME/ANG-II-induced renal injury [7]: prevents L-NAME/ANG-II-induced renal injury | Weight Percent Form H (XPRD) ([8]; cooling rate (0) 1.5°C/min, cooling endpoint (0) 25°C, impurity level (0) 100.8% purity starting material (footnote as printed), replicate runs): <3% Weight Percent and 5 Weight Percent | Weight Percent Form H (XPRD) ([8]; cooling rate (+) 3°C/min, cooling endpoint (-) 5°C, impurity level (+) 89.3% purity starting material): 9 Weight Percent | Weight Percent Form H (XPRD) ([9]; cooling rate (0) 1.5°C/min, endpoint (0) 25°C, 100.8% eplerenone seeded with Form H, analyzed by DSC): 100 Weight Percent | Weight Percent Form H (XPRD) ([9]; cooling rate (0) 1.5°C/min, endpoint (0) 25°C, 100.8% eplerenone seeded with Form H, analyzed by XPRD): 77 Weight Percent | Weight Percent Form H (XPRD) ([9]; cooling rate (+) 3°C/min, cooling endpoint (+) 45°C, impurity level (+) 89.3% purity starting material): 29 Weight Percent | Weight Percent Form H (XPRD) ([9]; cooling rate (-) 0.1°C/min, cooling endpoint (+) 45°C, impurity level (+) 89.3% purity starting material): 31 Weight Percent | Weight Percent Form H ([9]; cooling rate High, end point High, impurity level High, drying: High Fluid Bed): 25% | Weight Percent Form H ([9]; cooling rate High, end point High, impurity level High, drying: Low Fluid Bed): 4.7% | Weight Percent Form H ([9]; cooling rate High, end point High, impurity level High, drying: Vacuum Oven): 29% | Weight Percent Form H ([9]; cooling rate Low, end point Low, impurity level Low, drying: Low Fluid Bed): 5.5% | Estimated Weight Percent of Form H [9, 10]: None Detected | Form H Peak Area 12° Two Theta Peak [9, 10]: None Detected | Estimated Weight Percent of Form H [9, 11]: None Detected | Form H Peak Area 12° Two Theta Peak [9, 11]: None Detected | Estimated Weight Percent of Form H [9, 12]: None Detected | Form H Peak Area 12° Two Theta Peak [9, 12]: None Detected | Estimated Weight Percent of Form H [9, 13]: None Detected | Form H Peak Area 12° Two Theta Peak [9, 13]: None Detected | Estimated Weight Percent of Form H [9, 14]: 10% | Form H Peak Area 12° Two Theta Peak [9, 14]: 1168 | Estimated Weight Percent of Form H [9, 15]: None Detected | Form H Peak Area 12° Two Theta Peak [9, 15]: None Detected | Estimated Weight Percent of Form H [9, 16]: 30% | Form H Peak Area 12° Two Theta Peak [9, 16]: 4175 | Estimated Weight Percent of Form H [9, 17]: 10-15% | Form H Peak Area 12° Two Theta Peak [9, 17]: 1541
